Measured values published in ChEMBL document CHEMBL1128478, “Structure-activity relationships of the potent combined endothelin-A/endothelin-B receptor antagonist Ac-DDip16-Leu-Asp-Ile-Ile-Trp21: development of endothelin-B receptor selective antagonists” (J Med Chem, 1995).
Where a name gives a salt, the structure may show the parent alone. Numbered stars: 1 amine (or outer) side, 2 acyl side, 3 side chain; on linkers, the order of the positions; unused ones are H or OH. Square brackets hold non-standard residues; d marks the D form. Peptide text beside a SMILES is read from it. * marks the point of attachment. dGly(5-dibenzosuberyl) = N[C@@H](C(=O)O)C1c2ccccc2CCc2ccccc21; X3 = O=C([C@@H](N[*:1])C(c1ccccc1)(c1ccccc1)c1ccccc1)[*:2]; Ala(1-Adamantyl) = N[C@@H](CC12CC3CC(CC(C3)C1)C2)C(=O)O; X4 = Cc1c(C)c(C)c(C[C@@H](N[*:1])C(=O)[*:2])c(C)c1C; X2 = Cc1c(C)c(C)c(C[C@H](N[*:1])C(=O)[*:2])c(C)c1C; Diphenylacetyl = O=C(C(c1ccccc1)c1ccccc1)*; dDip = N[C@@H](C(=O)O)C(c1ccccc1)c1ccccc1; Dip = N[C@H](C(=O)O)C(c1ccccc1)c1ccccc1; Cyclohexanecarbonyl = O=C(C1CCCCC1)*; 3Pal = N[C@@H](Cc1cccnc1)C(=O)O; Suc = O=C(CCC(=O)[*:2])[*:1]; Orn = NCCC[C@H](N)C(=O)O; Tfa = O=C(C(F)(F)F)*

Assays:
[1] = target: T1, Endothelin receptor type B (Rattus norvegicus, UniProt P21451); test: Binding affinity against endothelin B receptor rat cerebellar membranes.
T1 sequence (P21451 whole entry): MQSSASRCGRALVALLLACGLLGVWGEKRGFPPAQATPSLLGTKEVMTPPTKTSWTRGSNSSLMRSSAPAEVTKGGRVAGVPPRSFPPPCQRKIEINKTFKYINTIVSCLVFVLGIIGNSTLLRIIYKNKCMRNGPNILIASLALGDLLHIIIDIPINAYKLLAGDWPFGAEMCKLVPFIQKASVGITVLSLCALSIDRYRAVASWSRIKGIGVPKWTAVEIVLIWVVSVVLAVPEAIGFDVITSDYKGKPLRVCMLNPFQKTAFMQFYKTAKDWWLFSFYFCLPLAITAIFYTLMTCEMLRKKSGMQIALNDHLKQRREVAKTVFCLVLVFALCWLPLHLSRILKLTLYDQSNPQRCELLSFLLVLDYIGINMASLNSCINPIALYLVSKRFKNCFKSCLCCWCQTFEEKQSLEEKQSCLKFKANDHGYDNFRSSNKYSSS

[2] = target: T1, Endothelin receptor type B; test: Inhibition of SRTX-6c stimulated arachidonic acid release in CHO cells expressing rat ET- B receptors
[3] = Relative affinities against endothelin A receptor (rabbit) and endothelin B receptor (rat); design: reference not given here

Compound	IC50 [1] [nM]	IC50 [2] [nM]	Ratio [3]
CC[C@H](C)[C@H](NC(=O)[C@H](CC(=O)O)NC(=O)[C@H](CC(C)C)NC(=O)[C@@H](NC(=O)C1CCCCC1)C(c1ccccc1)c1ccccc1)C(=O)N[C@H](C(=O)N[C@@H](Cc1c[nH]c2ccccc12)C(=O)O)[C@@H](C)CC (Cyclohexanecarbonyl-[Dip]LDIIW-OH)	350	560	17.8
CC[C@H](C)[C@H](NC(=O)[C@H](CC(=O)O)NC(=O)[C@H](CC(C)C)NC(=O)[C@H](NC(C)=O)C(c1ccccc1)c1ccccc1)C(=O)N[C@H](C(=O)N[C@@H](Cc1ccccc1)C(=O)O)[C@@H](C)CC	6800	–	–
CC[C@H](C)[C@@H]1NC(=O)[C@H](CC(=O)O)NC(=O)[C@H](CC(C)C)NC(=O)[C@@H](C2c3ccccc3CCc3ccccc32)NC(=O)[C@H](Cc2c[nH]c3ccccc23)NC(=O)[C@H]([C@@H](C)CC)NC1=O	> 10000	–	–
CC[C@H](C)[C@H](NC(=O)[C@H](CC(=O)O)NC(=O)[C@@H](Cc1ccccc1)NC(=O)[C@@H](NC(C)=O)C(c1ccccc1)c1ccccc1)C(=O)N[C@H](C(=O)N[C@@H](Cc1c[nH]c2ccccc12)C(=O)O)[C@@H](C)CC	740	–	–
CC[C@H](C)[C@H](NC(=O)[C@H](CC(=O)O)NC(=O)[C@H](CC(C)C)NC(=O)[C@@H](NC(C)=O)C(c1ccccc1)(c1ccccc1)c1ccccc1)C(=O)N[C@H](C(=O)N[C@@H](Cc1c[nH]c2ccccc12)C(=O)O)[C@@H](C)CC (Ac-[X3]LDIIW-OH)	5900	–	–
CC[C@H](C)[C@H](NC(=O)[C@H](CC(=O)O)NC(=O)[C@H](CC(C)C)NC(=O)[C@H](NC(C)=O)C(c1ccccc1)c1ccccc1)C(=O)N[C@@H](CC(C)C)C(=O)N[C@@H](Cc1c[nH]c2ccccc12)C(=O)O	730	–	–
CC[C@H](C)[C@H](NC(=O)[C@H](CC(=O)O)NC(=O)[C@H](CC(C)C)NC(=O)[C@@H](NC(=O)C(c1ccccc1)c1ccccc1)C(c1ccccc1)c1ccccc1)C(=O)N[C@H](C(=O)N[C@@H](Cc1c[nH]c2ccccc12)C(=O)O)[C@@H](C)CC (Diphenylacetyl-[Dip]LDIIW-OH)	1300	9300	2
CC[C@H](C)[C@H](NC(=O)[C@H](CC(=O)O)NC(=O)[C@H](CC(C)C)NC(=O)[C@@H](NC(=O)CCC(=O)O)C(c1ccccc1)c1ccccc1)C(=O)N[C@H](C(=O)N[C@@H](Cc1c[nH]c2ccccc12)C(=O)O)[C@@H](C)CC (Suc-[Dip]LDIIW-OH)	> 10000	–	–
CC[C@H](C)[C@H](NC(=O)[C@H](CC(=O)O)NC(=O)[C@H](CC(C)C)NC(=O)[C@@H](NC(C)=O)C(c1ccccc1)c1ccccc1)C(=O)N[C@@H](CCC(=O)O)C(=O)N[C@@H](Cc1c[nH]c2ccccc12)C(=O)O (Ac-[Dip]LDIEW-OH)	> 10000	–	–
CC[C@H](C)[C@H](NC(=O)[C@H](CC(=O)O)NC(=O)[C@H](CC(C)C)NC(=O)[C@H](NC(C)=O)C1c2ccccc2CCc2ccccc21)C(=O)N[C@H](C(=O)N[C@@H](Cc1c[nH]c2ccccc12)C(=O)O)[C@@H](C)CC (Ac-[dGly(5-dibenzosuberyl)]LDIIW-OH)	15	–	–
CC[C@H](C)[C@H](NC(=O)[C@H](CC(=O)O)NC(=O)[C@H](CC(C)C)NC(=O)[C@@H](NC(C)=O)C(c1ccccc1)c1ccccc1)C(=O)N[C@H](C(=O)N[C@@H](Cc1cccnc1)C(=O)O)[C@@H](C)CC (Ac-[Dip]LDII[3Pal]-OH)	> 10000	–	–
CC[C@H](C)[C@H](NC(=O)[C@H](C)NC(=O)[C@H](CC(=O)O)NC(=O)[C@H](CC(C)C)NC(=O)[C@H](NC(C)=O)C(c1ccccc1)c1ccccc1)C(=O)N[C@@H](Cc1c[nH]c2ccccc12)C(=O)O	330	–	–
Ac-FFDIIW-OH	20	–	–
CC[C@H](C)[C@H](NC(=O)[C@H](CC(=O)O)NC(=O)[C@H](CC(C)C)NC(=O)[C@@H](Cc1c(C)c(C)c(C)c(C)c1C)NC(C)=O)C(=O)N[C@H](C(=O)N[C@@H](Cc1c[nH]c2ccccc12)C(=O)O)[C@@H](C)CC (Ac-[X4]LDIIW-OH)	2400	–	–
CC[C@H](C)[C@H](NC(=O)[C@H](CC(=O)O)NC(=O)[C@H](CC(C)C)NC(=O)[C@H](N)C(c1ccccc1)c1ccccc1)C(=O)N[C@H](C(=O)N[C@@H](Cc1c[nH]c2ccccc12)C(=O)O)[C@@H](C)CC (H-[dDip]LDIIW-OH)	–	9200	–
CC[C@H](C)[C@H](NC(=O)[C@H](CC(=O)O)NC(=O)[C@H](CC(C)C)NC(=O)[C@@H](NC(C)=O)C(c1ccccc1)c1ccccc1)C(=O)N[C@H](C(=O)N[C@@H](Cc1c[nH]c2ccccc12)C(=O)O)C(C)C (Ac-[Dip]LDIVW-OH)	1400	–	–

Next, values leading:

IC50 [1] [nM]	IC50 [2] [nM]	Ratio [3]	Compound
10000	–	–	CC[C@H](C)[C@H](NC(=O)[C@H](CC(=O)O)NC(=O)[C@H](CC(C)C)NC(=O)[C@@H](N)C(c1ccccc1)(c1ccccc1)c1ccccc1)C(=O)N[C@H](C(=O)N[C@@H](Cc1c[nH]c2ccccc12)C(=O)O)[C@@H](C)CC (H-[X3]LDIIW-OH)
80	–	–	CC[C@H](C)[C@H](NC(=O)[C@H](Cc1ccc(O)cc1)NC(=O)[C@H](CC(C)C)NC(=O)[C@H](NC(C)=O)C(c1ccccc1)c1ccccc1)C(=O)N[C@H](C(=O)N[C@@H](Cc1c[nH]c2ccccc12)C(=O)O)[C@@H](C)CC
600	290	0.42	CC[C@H](C)[C@H](NC(=O)[C@H](CC(=O)O)NC(=O)[C@H](CC(C)C)NC(=O)[C@@H](NC(=O)C(F)(F)F)C(c1ccccc1)c1ccccc1)C(=O)N[C@H](C(=O)N[C@@H](Cc1c[nH]c2ccccc12)C(=O)O)[C@@H](C)CC (Tfa-[Dip]LDIIW-OH)
150	–	–	CC[C@H](C)[C@H](NC(=O)[C@H](CC(=O)O)NC(=O)[C@H](CCCN)NC(=O)[C@@H](NC(C)=O)C(c1ccccc1)c1ccccc1)C(=O)N[C@H](C(=O)N[C@@H](Cc1c[nH]c2ccccc12)C(=O)O)[C@@H](C)CC (Ac-[Dip][Orn]DIIW-OH)
> 10000	–	–	CC[C@H](C)[C@@H]1NC(=O)[C@H](CC(=O)O)NC(=O)[C@H](CC(C)C)NC(=O)[C@@H](Cc2ccccc2)NC(=O)[C@H](Cc2c[nH]c3ccccc23)NC(=O)[C@H]([C@@H](C)CC)NC1=O
6100	–	–	CC[C@H](C)[C@H](NC(=O)[C@H](CC(=O)O)NC(=O)[C@H](CC(C)C)NC(=O)[C@@H](NC(C)=O)C(c1ccccc1)c1ccccc1)C(=O)N[C@H](C(=O)N[C@@H](Cc1ccc(O)cc1)C(=O)O)[C@@H](C)CC (Ac-[Dip]LDIIY-OH)
210	–	–	CC[C@H](C)[C@H](NC(=O)[C@H](CC1CCCCC1)NC(=O)[C@H](CC(=O)O)NC(=O)[C@H](CC(C)C)NC(=O)[C@H](NC(C)=O)C(c1ccccc1)c1ccccc1)C(=O)N[C@@H](Cc1c[nH]c2ccccc12)C(=O)O
2000	–	–	CC[C@H](C)[C@H](NC(=O)[C@H](CC(=O)O)NC(=O)[C@H](CC(C)C)NC(=O)[C@H](CC12CC3CC(CC(C3)C1)C2)NC(C)=O)C(=O)N[C@H](C(=O)N[C@@H](Cc1c[nH]c2ccccc12)C(=O)O)[C@@H](C)CC (Ac-[Ala(1-Adamantyl)]LDIIW-OH)
51	–	–	CC[C@H](C)[C@H](NC(=O)[C@@H](NC(=O)[C@H](CC(=O)O)NC(=O)[C@H](CC(C)C)NC(=O)[C@@H](NC(C)=O)C(c1ccccc1)c1ccccc1)C(C)C)C(=O)N[C@@H](Cc1c[nH]c2ccccc12)C(=O)O (Ac-[Dip]LDVIW-OH)
> 10000	–	–	CC[C@H](C)[C@H](NC(=O)[C@H](CC(=O)O)NC(=O)[C@H](CC(C)C)NC(=O)[C@@H](N)Cc1c(C)c(C)c(C)c(C)c1C)C(=O)N[C@H](C(=O)N[C@@H](Cc1c[nH]c2ccccc12)C(=O)O)[C@@H](C)CC (H-[X2]LDIIW-OH)
4700	–	–	CC[C@H](C)[C@H](NC(=O)[C@H](CC(=O)O)NC(=O)[C@H](CC(C)C)NC(=O)[C@@H](NC(C)=O)C(c1ccccc1)c1ccccc1)C(=O)N[C@@H](CCCCN)C(=O)N[C@@H](Cc1c[nH]c2ccccc12)C(=O)O (Ac-[Dip]LDIKW-OH)
7500	–	–	CC[C@H](C)[C@H](NC(=O)[C@H](CC(=O)O)NC(=O)[C@H](CC(C)C)NC(=O)[C@H](NC(C)=O)C(c1ccccc1)c1ccccc1)C(=O)N[C@@H](Cc1ccccc1)C(=O)N[C@@H](Cc1c[nH]c2ccccc12)C(=O)O
6000	–	–	CC[C@H](C)[C@H](NC(=O)[C@H](CCC(=O)O)NC(=O)[C@H](CC(=O)O)NC(=O)[C@H](CC(C)C)NC(=O)[C@H](NC(C)=O)C(c1ccccc1)c1ccccc1)C(=O)N[C@@H](Cc1c[nH]c2ccccc12)C(=O)O (Ac-[dDip]LDEIW-OH)
12	–	–	CC[C@H](C)[C@H](NC(=O)[C@H](Cc1ccc(O)cc1)NC(=O)[C@H](CC(=O)O)NC(=O)[C@H](CC(C)C)NC(=O)[C@@H](NC(C)=O)C(c1ccccc1)c1ccccc1)C(=O)N[C@@H](Cc1c[nH]c2ccccc12)C(=O)O (Ac-[Dip]LDYIW-OH)
> 1000	–	–	CC[C@H](C)[C@@H]1NC(=O)[C@H](CC(=O)O)NC(=O)[C@@H](NC(=O)[C@H](NC(C)=O)C(c2ccccc2)c2ccccc2)CSSC[C@@H](C(=O)N[C@@H](Cc2c[nH]c3ccccc23)C(=O)O)NC1=O
1600	–	–	CC[C@H](C)[C@@H]1NC(=O)[C@H](CC(=O)O)NC(=O)[C@H](CC(C)C)NC(=O)[C@@H](C(c2ccccc2)c2ccccc2)NC(=O)[C@H](Cc2c[nH]c3ccccc23)NC(=O)[C@H]([C@@H](C)CC)NC1=O
3700	–	–	CC[C@H](C)[C@H](NC(=O)[C@H](CCCCN)NC(=O)[C@H](CC(=O)O)NC(=O)[C@H](CC(C)C)NC(=O)[C@H](NC(C)=O)C(c1ccccc1)c1ccccc1)C(=O)N[C@@H](Cc1c[nH]c2ccccc12)C(=O)O
16	–	–	CC[C@H](C)[C@H](NC(=O)[C@H](C)NC(=O)[C@H](CC(C)C)NC(=O)[C@@H](NC(C)=O)C(c1ccccc1)c1ccccc1)C(=O)N[C@H](C(=O)N[C@@H](Cc1c[nH]c2ccccc12)C(=O)O)[C@@H](C)CC (Ac-[Dip]LAIIW-OH)
